Experiment [1] concerns the target human orexin 2 receptor (Homo sapiens (Human), UniProt O43614). In words: Human orexin 2 receptor radioligand binding. As to conditions: human orexin 2 receptor; averages of 2-20 runs; read-out: hOX2 Ki. In outline: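 Ki derived from one-site competition IC50 using predetermined Kd of [3H]-EMPA, triplicate points, 2-20 runs averaged. Binding done on homogenized HEK293 cells stably expressing human orexin 2 receptor, DMSO ≤0.1%, with 10 μM almorexant defining nonspecific binding; filtered, washed, scintillation counted.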

Experiment [2] has as its target rat orexin 1 receptor (Rattus norvegicus, UniProt P56718). Kind of experiment: Rat orexin 1 receptor radioligand binding. As to conditions: rat orexin 1 receptor; averages of 2-20 runs; read-out: rOX1 Ki. In outline:
(§1)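 Ki values derive from one-site competition IC50s corrected with the radioligand's predetermined Kd, triplicates per run, averaged over 2-20 runs. Cell homogenates (rat or human OX1R) compete against [^3H]-thiazolyl-oxadiazolyl-pyrrolidine methanone in PBS; 10 μM almorexant sets nonspecific binding; scintillation counting after washing.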

Experiment [3] has as its target human orexin 1 receptor (Homo sapiens, UniProt O43613). Kind of experiment: Human orexin 1 receptor radioligand binding. As to conditions: human orexin 1 receptor; averages of 2-20 runs; read-out: hOX1 Ki. A digest of the protocol: as §1

The results in this text go back to patent publication US9611277B2 (Janssen Pharmaceutica NV, priority 2013, dated 2017).

SMILES strings stand for the structures.

Sequence of human orexin 2 receptor (O43614 whole entry): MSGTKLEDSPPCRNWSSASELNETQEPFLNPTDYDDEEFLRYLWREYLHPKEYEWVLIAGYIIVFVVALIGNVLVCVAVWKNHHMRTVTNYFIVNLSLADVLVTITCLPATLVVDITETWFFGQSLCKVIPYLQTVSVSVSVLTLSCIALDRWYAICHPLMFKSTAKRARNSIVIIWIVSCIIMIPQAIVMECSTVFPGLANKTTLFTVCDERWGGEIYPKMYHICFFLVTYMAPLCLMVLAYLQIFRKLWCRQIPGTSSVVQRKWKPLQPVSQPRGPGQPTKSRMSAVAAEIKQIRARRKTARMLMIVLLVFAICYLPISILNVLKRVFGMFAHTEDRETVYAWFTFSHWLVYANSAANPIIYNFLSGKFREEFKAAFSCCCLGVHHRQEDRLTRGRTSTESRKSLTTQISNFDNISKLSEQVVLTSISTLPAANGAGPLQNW

`O=C(c1ccc(F)cc1-c1ncccn1)N1C[C@H]2C[C@@H](Nc3ncc(Cl)cn3)[C@@H]1C2` [Example 237, ((1S,4S,6R)-6-((5-chloropyrimidin-2-yl)amino)-2-azabicyclo[2.2.1]heptan-2-yl)(4-fluoro-2-(pyrimidin-2-yl)phenyl)methanone]: the inhibition constant (Ki) in experiment [1] was 1900 nM; in experiment [2], 32 nM; in experiment [3] it was 13 nM.
For `O=C(c1c(F)cccc1-c1ncccn1)N1C[C@H]2C[C@@H](Nc3ncc(Cl)cn3)[C@@H]1C2` [Example 239, ((1S,4S,6R)-6-((5-chloropyrimidin-2-yl)amino)-2-azabicyclo[2.2.1]heptan-2-yl)(2-fluoro-6-(pyrimidin-2-yl)phenyl)methanone], in that order: 726 nM, 23 nM and 41 nM.
Consider `O=C(c1ccccc1-c1ncccn1)N1C[C@H]2C[C@@H](Nc3ncc(Cl)cn3)[C@@H]1C2` [Example 240, ((1S,4S,6R)-6-((5-chloropyrimidin-2-yl)amino)-2-azabicyclo[2.2.1]heptan-2-yl)(2-(pyrimidin-2-yl)phenyl)methanone], for which the Ki in experiment [1] worked out at 831 nM; in experiment [2], 17 nM; in experiment [3] it was 12 nM.
For `O=C(c1ccccc1-n1nccn1)N1C[C@H]2C[C@@H](Nc3ccc(C(F)(F)F)nn3)[C@@H]1C2` [Example 242, (2-(2H-1,2,3-triazol-2-yl)phenyl)((1S,4S,6R)-6-((6-(trifluoromethyl)pyridazin-3-yl)amino)-2-azabicyclo[2.2.1]heptan-2-yl)methanone], in that order: 2100 nM, 89 nM and 113 nM.
For `Cc1ccc(-n2nccn2)c(C(=O)N2C[C@H]3C[C@@H](Nc4ccc(C(F)(F)F)nn4)[C@@H]2C3)n1` [Example 243, (6-methyl-3-(2H-1,2,3-triazol-2-yl)pyridin-2-yl)((1S,4S,6R)-6-((6-(trifluoromethyl)pyridazin-3-yl)amino)-2-azabicyclo[2.2.1]heptan-2-yl)methanone], in that order: 1800 nM, 112 nM and 131 nM.
Regarding `Cc1ccc(-c2ncccn2)c(C(=O)N2C[C@H]3C[C@@H](Nc4ccc(C(F)(F)F)nn4)[C@@H]2C3)n1` [Example 244, (6-methyl-3-(pyrimidin-2-yl)pyridin-2-yl)((1S,4S,6R)-6-((6-(trifluoromethyl)pyridazin-3-yl)amino)-2-azabicyclo[2.2.1]heptan-2-yl)methanone], the Ki in experiment [1] is 1700 nM; in experiment [2], 114 nM; in experiment [3] it was 143 nM.
Taken in the same sequence, the figures for `O=C(c1cccc(F)c1-c1ncccn1)N1C[C@H]2C[C@@H](Nc3ccc(C(F)(F)F)nn3)[C@@H]1C2` [Example 245, (3-fluoro-2-(pyrimidin-2-yl)phenyl)((1S,4S,6R)-6-((6-(trifluoromethyl)pyridazin-3-yl)amino)-2-azabicyclo[2.2.1]heptan-2-yl)methanone] were 4300 nM, 65 nM and 53 nM.
On to `O=C(c1ccccc1-n1nccn1)N1C[C@H]2C[C@@H](Nc3ccc(C(F)(F)F)nc3)[C@@H]1C2` [Example 246, (2-(2H-1,2,3-triazol-2-yl)phenyl)((1S,4S,6R)-6-((6-(trifluoromethyl)pyridin-3-yl)amino)-2-azabicyclo[2.2.1]heptan-2-yl)methanone], for which the values for the inhibition constant Ki in experiment [1], in experiment [2] and in experiment [3] were 843 nM, 194 nM and 155 nM, respectively.
Taken in the same sequence, the figures for `O=C(c1cccc(F)c1-c1ncccn1)N1C[C@H]2C[C@@H](Nc3ccc(C(F)(F)F)nc3)[C@@H]1C2` [Example 247, (3-fluoro-2-(pyrimidin-2-yl)phenyl)((1S,4S,6R)-6-((6-(trifluoromethyl)pyridin-3-yl)amino)-2-azabicyclo[2.2.1]heptan-2-yl)methanone] were 939 nM, 26 nM and 31 nM.
For `O=C(c1cc(F)ccc1-c1ncccn1)N1C[C@@H]2CC[C@H]1[C@H](Oc1ccc(C(F)(F)F)cn1)C2` [Example 260, (5-fluoro-2-(pyrimidin-2-yl)phenyl)((1S,4R,6R)-6-((5-(trifluoromethyl)pyridin-2-yl)oxy)-2-azabicyclo[2.2.2]octan-2-yl)methanone], in that order: 294 nM, 11 nM and 10 nM.
`O=C(c1c(F)cccc1-c1ncccn1)N1C[C@@H]2CC[C@H]1[C@H](Oc1ccc(C(F)(F)F)cn1)C2` [Example 261, (2-fluoro-6-(pyrimidin-2-yl)phenyl)((1S,4R,6R)-6-((5-(trifluoromethyl)pyridin-2-yl)oxy)-2-azabicyclo[2.2.2]octan-2-yl)methanone]: the inhibition constant Ki turned out to be 400 nM in experiment [1], 21 nM in experiment [2] and 9 nM in experiment [3].
Taken in the same sequence, the figures for `O=C(c1cccc(F)c1-c1ncc(F)cn1)N1C[C@@H]2CC[C@H]1[C@H](Oc1ccc(C(F)(F)F)cn1)C2` [Example 263, (3-fluoro-2-(5-fluoropyrimidin-2-yl)phenyl)((1S,4R,6R)-6-((5-(trifluoromethyl)pyridin-2-yl)oxy)-2-azabicyclo[2.2.2]octan-2-yl)methanone] were 1100 nM, 11 nM and 9 nM.
For `Cc1cnc(C(=O)N2C[C@@H]3CC[C@H]2[C@H](Oc2ccc(C(F)(F)F)cn2)C3)c(-c2ncccn2)c1` [Example 264, (5-methyl-3-(pyrimidin-2-yl)pyridin-2-yl)((1S,4R,6R)-6-((5-(trifluoromethyl)pyridin-2-yl)oxy)-2-azabicyclo[2.2.2]octan-2-yl)methanone], in that order: more than 10000 nM, 10 nM and 16 nM.
For `Cc1ccc(-c2ncccn2)c(C(=O)N2C[C@@H]3CC[C@H]2[C@H](Oc2ccc(C(F)(F)F)cn2)C3)n1` [Example 265, (6-methyl-3-(pyrimidin-2-yl)pyridin-2-yl)((1S,4R,6R)-6-((5-(trifluoromethyl)pyridin-2-yl)oxy)-2-azabicyclo[2.2.2]octan-2-yl)methanone], in that order: 306 nM, 14 nM and 19 nM.
For `O=C(c1cccc(F)c1-c1ncccn1)N1C[C@@H]2CC[C@H]1[C@H](Oc1ncc(C(F)(F)F)cc1F)C2` [Example 266, (3-fluoro-2-(pyrimidin-2-yl)phenyl)((1S,4R,6R)-6-((3-fluoro-5-(trifluoromethyl)pyridin-2-yl)oxy)-2-azabicyclo[2.2.2]octan-2-yl)methanone], the results for the inhibitory constant (Ki) in experiment [1], in experiment [2] and in experiment [3] were 654 nM, 11 nM and 11 nM, respectively.
As to `Cc1ccc(O[C@@H]2C[C@H]3CC[C@@H]2N(C(=O)c2cccc(F)c2-c2ncccn2)C3)nc1` [Example 267, (3-fluoro-2-(pyrimidin-2-yl)phenyl)((1S,4R,6R)-6-((5-methylpyridin-2-yl)oxy)-2-azabicyclo[2.2.2]octan-2-yl)methanone], the inhibitory constant (Ki) in experiment [1] was 1100 nM; in experiment [2], 26 nM; in experiment [3] it was 19 nM.
With `O=C(c1ccccc1-n1nccn1)N1C[C@@H]2CC[C@H]1[C@H](Oc1ccc(Br)cn1)C2` [Example 268, (2-(2H-1,2,3-triazol-2-yl)phenyl)((1S,4R,6R)-6-((5-bromopyridin-2-yl)oxy)-2-azabicyclo[2.2.2]octan-2-yl)methanone], the inhibition constant (Ki) worked out at 200 nM in experiment [1], 5 nM in experiment [2] and 4 nM in experiment [3].
Take `O=C(c1cccc(F)c1-c1ncccn1)N1C[C@@H]2CC[C@H]1[C@H](Oc1ccc(Br)cn1)C2` [Example 269, ((1S,4R,6R)-6-((5-bromopyridin-2-yl)oxy)-2-azabicyclo[2.2.2]octan-2-yl)(3-fluoro-2-(pyrimidin-2-yl)phenyl)methanone]: the Ki worked out at 363 nM in experiment [1], 4 nM in experiment [2] and 5 nM in experiment [3].
Taken in the same sequence, the figures for `O=C(c1ccccc1-n1nccn1)N1C[C@@H]2CC[C@H]1[C@H](Oc1ccc(Cl)cn1)C2` [Example 270, (2-(2H-1,2,3-triazol-2-yl)phenyl)((1S,4R,6R)-6-((5-chloropyridin-2-yl)oxy)-2-azabicyclo[2.2.2]octan-2-yl)methanone] were 200 nM, 4 nM and 3 nM.
For `O=C(c1cccc(F)c1-c1ncccn1)N1C[C@@H]2CC[C@H]1[C@H](Oc1ccc(Cl)cn1)C2` [Example 271, ((1S,4R,6R)-6-((5-chloropyridin-2-yl)oxy)-2-azabicyclo[2.2.2]octan-2-yl)(3-fluoro-2-(pyrimidin-2-yl)phenyl)methanone], in that order: 452 nM, 7 nM and 8 nM.
Taken in the same sequence, the figures for `O=C(c1ccccc1-c1ncc(F)cn1)N1C[C@@H]2CC[C@H]1[C@H](Oc1cnc(C(F)(F)F)cn1)C2` [Example 272, (2-(5-fluoropyrimidin-2-yl)phenyl)((1S,4R,6R)-6-((5-(trifluoromethyl)pyrazin-2-yl)oxy)-2-azabicyclo[2.2.2]octan-2-yl)methanone] were 1400 nM, 23 nM and 11 nM.
Consider `O=C(c1cccc(F)c1-c1ncc(F)cn1)N1C[C@@H]2CC[C@H]1[C@H](Oc1cnc(C(F)(F)F)cn1)C2` [Example 273, (3-fluoro-2-(5-fluoropyrimidin-2-yl)phenyl)((1S,4R,6R)-6-((5-(trifluoromethyl)pyrazin-2-yl)oxy)-2-azabicyclo[2.2.2]octan-2-yl)methanone], for which the inhibition constant Ki in experiment [1] is 3800 nM; in experiment [2] it was 44 nM; in experiment [3] it was 16 nM.
